ChEMBL document CHEMBL1201862, “PubChem BioAssay data set” (2004)
Activity calls are given as the source filed them.

What was measured:
[1] = biological target: T1, Endoribonuclease toxin MazF (Escherichia coli K-12, UniProt P0AE70); assay: MazF toxin RNase activators, dose response, biochemical, fluorescence, single-stranded RNA substrate, uHTS hits (AID 588481); format: functional
T1 sequence (P0AE70 whole entry): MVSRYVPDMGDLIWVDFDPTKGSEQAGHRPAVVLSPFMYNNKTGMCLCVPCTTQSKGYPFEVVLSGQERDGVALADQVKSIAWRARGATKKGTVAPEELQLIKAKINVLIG

[2] = biological target: T1, Endoribonuclease toxin MazF; assay: fluorescent RNA oligo signal without MazF, dose response, counter-screen for MazEF activator project, biochemical, fluorescence, single-stranded RNase substrate (AID 588502); format: functional
[3] = biological target: T2, Adenosylmethionine-8-amino-7-oxononanoate aminotransferase (Mycobacterium tuberculosis, UniProt P9WQ81); assay: Mycobacterium tuberculosis BioA enzyme inhibitor Measured in Biochemical System Using Plate Reader - 2163-02_Inhibitor_Dose_CherryPick_Activity.; format: functional, Mycobacterium tuberculosis UT205
T2 sequence (P9WQ81 whole entry): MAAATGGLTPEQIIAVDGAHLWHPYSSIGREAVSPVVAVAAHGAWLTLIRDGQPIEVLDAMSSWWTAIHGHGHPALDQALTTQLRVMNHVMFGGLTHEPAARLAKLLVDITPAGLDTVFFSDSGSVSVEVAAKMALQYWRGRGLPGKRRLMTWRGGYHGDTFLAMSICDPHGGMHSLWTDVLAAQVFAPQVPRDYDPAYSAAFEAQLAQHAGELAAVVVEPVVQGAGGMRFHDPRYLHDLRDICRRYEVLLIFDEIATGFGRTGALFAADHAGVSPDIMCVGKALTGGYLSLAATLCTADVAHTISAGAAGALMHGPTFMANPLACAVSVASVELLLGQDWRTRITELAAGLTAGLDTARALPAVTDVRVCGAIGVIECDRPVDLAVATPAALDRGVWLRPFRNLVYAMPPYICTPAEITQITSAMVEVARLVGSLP

[4] = cytotoxicity toward NIH3T3 fibroblasts, dose response, counter-screen, cell-based, ATP luminescence, mouse fibroblasts (AID 2010); format: functional;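 further: cells exposed to compound for about 90 hours before reading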
[5] = inhibitors of intracellular T. cruzi replication, confirmation, NIH3T3 host cells, beta-gal luminescence (AID 2044); format: functional, cell-based;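 further: intracellular parasites grown in NIH/3T3 mouse fibroblasts as host cells; luminescent beta-galactosidase reporter signal from transgenic T. cruzi replicating inside host cells; inhibitors lower the luminescence signal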
Vero = assay: cells; format: functional; conditions: Chlorocebus sabaeus
Cryptococcus neoformans = assay: PubChem AID 686997; format: functional, organism-based; conditions: Cryptococcus neoformans
[6] = biological target: T3, Replicative DNA helicase DnaB (Mycobacterium tuberculosis, UniProt P9WMR3); assay: DnaB intein splicing inhibitors, dose response, biochemical, cell-free fluorescence (AID 449749); format: functional
T3 sequence (P9WMR3 whole entry): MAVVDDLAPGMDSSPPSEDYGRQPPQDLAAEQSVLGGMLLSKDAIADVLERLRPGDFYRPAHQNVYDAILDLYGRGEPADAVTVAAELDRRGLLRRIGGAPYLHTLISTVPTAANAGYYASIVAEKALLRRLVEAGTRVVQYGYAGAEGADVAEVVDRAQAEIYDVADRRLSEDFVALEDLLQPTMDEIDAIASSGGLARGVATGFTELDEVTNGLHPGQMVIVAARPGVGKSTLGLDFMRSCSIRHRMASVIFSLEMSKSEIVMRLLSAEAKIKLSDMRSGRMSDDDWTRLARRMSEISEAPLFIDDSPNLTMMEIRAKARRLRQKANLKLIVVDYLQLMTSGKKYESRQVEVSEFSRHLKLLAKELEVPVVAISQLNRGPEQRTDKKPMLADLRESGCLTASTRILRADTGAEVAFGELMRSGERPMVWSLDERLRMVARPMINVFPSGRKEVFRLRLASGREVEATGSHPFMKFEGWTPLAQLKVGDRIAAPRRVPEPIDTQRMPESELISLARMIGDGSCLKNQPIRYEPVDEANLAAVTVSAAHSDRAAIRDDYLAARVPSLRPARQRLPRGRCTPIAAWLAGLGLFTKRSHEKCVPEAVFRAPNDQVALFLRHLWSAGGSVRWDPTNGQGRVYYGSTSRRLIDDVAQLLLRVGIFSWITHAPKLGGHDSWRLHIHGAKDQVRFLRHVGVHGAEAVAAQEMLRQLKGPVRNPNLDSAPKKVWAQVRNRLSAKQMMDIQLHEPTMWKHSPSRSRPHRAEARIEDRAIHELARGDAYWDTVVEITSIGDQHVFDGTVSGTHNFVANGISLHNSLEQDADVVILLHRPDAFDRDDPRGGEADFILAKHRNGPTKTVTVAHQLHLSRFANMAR

Protein RecA = biological target: T4, Protein RecA (Mycobacterium tuberculosis, UniProt P9WHJ3); assay: Fluorescence Cell-Free Homogeneous Dose Retest to Identify Inhibitors of RecA-Intein Splicing Activity. [Related pubchem assays (depositor defined):AID2097, AID2223, AID489010, AID492950]; format: functional
T4 sequence (P9WHJ3 whole entry): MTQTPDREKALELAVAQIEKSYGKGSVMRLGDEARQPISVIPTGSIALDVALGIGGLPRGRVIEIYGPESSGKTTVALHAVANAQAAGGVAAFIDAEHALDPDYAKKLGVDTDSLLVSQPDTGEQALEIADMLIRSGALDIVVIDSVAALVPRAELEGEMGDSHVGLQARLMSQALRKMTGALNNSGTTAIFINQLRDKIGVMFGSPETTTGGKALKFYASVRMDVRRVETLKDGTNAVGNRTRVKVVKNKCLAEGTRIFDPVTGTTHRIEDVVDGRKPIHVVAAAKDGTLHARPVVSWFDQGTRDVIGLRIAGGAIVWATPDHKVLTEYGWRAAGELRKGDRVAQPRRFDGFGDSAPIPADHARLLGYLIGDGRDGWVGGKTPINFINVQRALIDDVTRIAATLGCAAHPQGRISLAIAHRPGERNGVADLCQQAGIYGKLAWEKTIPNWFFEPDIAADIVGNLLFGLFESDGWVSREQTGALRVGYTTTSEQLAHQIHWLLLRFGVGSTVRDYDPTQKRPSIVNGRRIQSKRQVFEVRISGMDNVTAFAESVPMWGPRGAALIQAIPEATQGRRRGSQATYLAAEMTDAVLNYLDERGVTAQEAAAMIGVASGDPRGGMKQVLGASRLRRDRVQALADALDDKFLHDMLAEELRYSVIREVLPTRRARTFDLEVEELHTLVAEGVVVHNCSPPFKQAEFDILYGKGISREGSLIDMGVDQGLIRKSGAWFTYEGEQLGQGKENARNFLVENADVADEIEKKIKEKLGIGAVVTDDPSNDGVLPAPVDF

HEK293 = assay: inhibitors of LMP1-driven NF-kB reporter, dose response, cell-based, HEK293, luciferase, cherry-pick (AID 588343); format: functional; conditions: Homo sapiens
Cytochrome P450 1A2 = biological target: T5, Cytochrome P450 1A2 (Homo sapiens, UniProt P05177);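 further: PubChem cytochrome P450 panel assay, CYP1A2 panel member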
T5 sequence (P05177 whole entry): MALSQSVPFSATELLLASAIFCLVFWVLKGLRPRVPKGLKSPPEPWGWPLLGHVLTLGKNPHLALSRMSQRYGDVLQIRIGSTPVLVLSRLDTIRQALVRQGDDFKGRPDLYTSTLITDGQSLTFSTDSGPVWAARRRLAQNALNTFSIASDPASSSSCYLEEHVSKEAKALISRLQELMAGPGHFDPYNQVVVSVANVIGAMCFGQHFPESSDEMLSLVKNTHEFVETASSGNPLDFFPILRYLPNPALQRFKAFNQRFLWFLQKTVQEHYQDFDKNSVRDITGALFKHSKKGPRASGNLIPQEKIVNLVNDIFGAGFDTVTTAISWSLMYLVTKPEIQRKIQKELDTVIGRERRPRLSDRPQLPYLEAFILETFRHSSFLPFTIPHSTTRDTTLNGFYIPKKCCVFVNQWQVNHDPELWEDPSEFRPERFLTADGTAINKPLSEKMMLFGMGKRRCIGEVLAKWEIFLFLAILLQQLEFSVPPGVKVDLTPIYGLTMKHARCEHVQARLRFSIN

Jurkat = assay: antigen receptor-induced NF-kB inhibitors, dose response, Jurkat, luciferase reporter, luminescence, B- and T-cell (AID 489004); format: functional, cell-based; conditions: Homo sapiens;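 further: NF-kB luciferase reporter Jurkat cells stimulated with PMA plus ionomycin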
Cytochrome P450 2C9 = Cytochrome P450 2C9 (Homo sapiens, UniProt P11712)
Sequence of Cytochrome P450 2C9 (P11712 whole entry): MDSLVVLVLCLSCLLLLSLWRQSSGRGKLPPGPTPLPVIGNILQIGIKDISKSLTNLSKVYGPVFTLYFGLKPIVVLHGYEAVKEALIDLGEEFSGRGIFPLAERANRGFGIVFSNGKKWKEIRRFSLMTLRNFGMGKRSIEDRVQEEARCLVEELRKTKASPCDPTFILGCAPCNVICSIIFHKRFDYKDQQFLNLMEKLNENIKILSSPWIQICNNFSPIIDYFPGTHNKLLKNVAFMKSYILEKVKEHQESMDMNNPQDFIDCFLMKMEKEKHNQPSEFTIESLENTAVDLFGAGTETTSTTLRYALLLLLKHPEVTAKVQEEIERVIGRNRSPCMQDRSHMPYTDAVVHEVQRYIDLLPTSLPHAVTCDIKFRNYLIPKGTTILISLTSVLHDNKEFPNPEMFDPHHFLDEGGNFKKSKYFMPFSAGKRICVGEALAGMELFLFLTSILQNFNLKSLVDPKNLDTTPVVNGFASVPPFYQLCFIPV

[7] = cytotoxicity in HEK-293T NF-kB-Luc cells, dose response, cytotoxicity control for B/T-cell NF-kB inhibitor project, cell-based, uHTS hits (AID 489019); format: functional;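 further: IC50 reflects cytotoxicity as loss of cell viability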
[8] = inhibitors of HIV Env-driven cell fusion, dose response, cherry-pick (AID 652057); format: functional, cell-based
[9] = CEM21 lymphoblast cell cytotoxicity, dose response, cytotoxicity control for viral fusion inhibitor project, CellTiter-Glo luminescence, cherry-picked (AID 652042); format: functional, cell-based;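 further: potency for signal decrease meaning cytotoxicity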
INS1 = assay: beta cell apoptosis inhibitors, cytokine rescue, dose response, luminescence, retest (AID 449756); format: functional, cell-based; conditions: Rattus norvegicus;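 further: cell death triggered by IL-1 beta plus TNF-alpha plus IFN-gamma mixture; protective hits raise ATP signal compared with cytokine alone wells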
[10] = inhibitors of clade B AD8 Env fusion, dose response, cell-based, cherry-pick (AID 652062); format: functional;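 further: luciferase signal from cell-cell fusion driven by HIV-1 clade B AD8 Env; potency is for inhibitors of fusion seen as a drop in luminescence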
[11] = biological target: Glucose-6-phosphate 1-dehydrogenase (Homo sapiens, UniProt P11413); assay: human G6PD enzyme inhibitors, dose response, selectivity assay for P. falciparum G6PD inhibitor project, biochemical, fluorescence (AID 504792); format: functional
Sequence of Glucose-6-phosphate 1-dehydrogenase (P11413 whole entry): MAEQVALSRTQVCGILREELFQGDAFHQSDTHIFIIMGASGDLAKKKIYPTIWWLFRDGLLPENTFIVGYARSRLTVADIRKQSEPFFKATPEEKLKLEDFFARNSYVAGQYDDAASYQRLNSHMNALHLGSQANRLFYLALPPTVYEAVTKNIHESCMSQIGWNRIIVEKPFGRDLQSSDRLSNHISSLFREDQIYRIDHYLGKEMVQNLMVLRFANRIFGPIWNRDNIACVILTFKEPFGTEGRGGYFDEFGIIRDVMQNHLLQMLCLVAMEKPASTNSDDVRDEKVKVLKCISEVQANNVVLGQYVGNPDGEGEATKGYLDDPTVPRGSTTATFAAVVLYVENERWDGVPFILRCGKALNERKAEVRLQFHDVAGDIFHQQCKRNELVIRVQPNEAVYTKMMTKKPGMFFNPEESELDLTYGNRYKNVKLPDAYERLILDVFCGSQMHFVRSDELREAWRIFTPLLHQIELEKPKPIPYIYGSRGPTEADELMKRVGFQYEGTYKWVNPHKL

[12] = Shn3 3'UTR reporter inhibitors, dose response, cell-based, Clone20 osteoblasts, firefly luciferase, cherry-picked (AID 624132); format: functional;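 further: firefly luciferase luminescence from reporter carrying the Shn3 3'UTR in osteoblasts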
[13] = control 3'UTR Renilla luciferase suppression, dose response, counter-screen for Shn3 inhibitor project, cell-based, Clone20-Shn3RL, cherry-picked (AID 624133); format: functional
[14] = HepG2 cell cytotoxicity, dose response, cytotoxicity control for Shn3 inhibitor project, CellTiter-Glo, cherry-picked (AID 624134); format: functional, cell-based
Streptococcus = assay: Group A Streptococcus viability loss, dose response, counter-screen for streptokinase expression inhibitor project, luminescence, BacTiterGlo (AID 1915); format: functional, organism-based;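 further: potency for reduction of bacterial viability or growth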
[15] = tested on: Streptococcus sp. 'group A'; assay: growth inhibition of control SK(-) GAS strain, dose response, counter-screen for streptokinase expression inhibitor project, luminescence, kanamycin, BacTiterGlo, confirmation (AID 1900); format: functional, organism-based
H9c2 = assay: cells; format: functional, cell-based; conditions: Rattus norvegicus, H9c2, Myocardium;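 further: confirmatory concentration-response retest of ultra-high-throughput screening hits for modulation of myocardial damage; cell death induced by hydrogen peroxide oxidative stress; compound pretreatment for 60 min then peroxide exposure for 2 h; potency is for protecting the cells against peroxide damage rather than for killing them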
[16] = T. cruzi growth inhibition in host cells, dose response, cell-based, plate reader, dry powder, set 2 (AID 652275); format: functional

C=CCSC1=N/C(=C\c2cc(OC)c3c(c2)OCO3)C(=O)S1
EC50 [1]: 20.7 µM (inactive) | EC50 [2]: 64.5 µM (inactive)

O=C(Nc1ccc(F)c(Cl)c1)C1CCCN(c2cnccn2)C1 (stereo not given)
AC50 [3]: 3.25 µM (active) | EC50 [4]: > 60 µM (not active) | EC50 [5]: 0.39 µM (active)

CCN(CC)CCCN(C(=O)c1ccccc1F)c1nc(-c2ccc(OC)cc2)cs1
CC50 (Vero): 17.6 µM (active)

Cc1ccc(C)c(Nc2nc3c(S(=O)(=O)c4ccccc4)nnn3c3ccccc23)c1
EC50 [1]: > 99 µM (inactive) | EC50 [2]: > 99 µM (inactive)

COc1cccc(NC(=S)N2CCC(Cc3ccccc3)CC2)c1
AC50 (Cryptococcus neoformans): 36.8 µM (active)

Clc1ccc(CSc2nnc(-c3cccnc3)o2)cc1
AC50 [3]: 4.13 µM (active)

CCCCN1C(=O)c2ccc(C(=O)Nc3cccnc3)cc2C1=O
AC50 [3]: 0.544 µM (active)

CN1/C(=C/C(=O)c2ccc(Cl)cc2)Sc2cc3c(cc21)OCO3
EC50 [1]: > 99 µM (inactive) | EC50 [2]: 62.3 µM (inactive)

Cc1ccccc1N(Cc1cc(O)nc2ccccc12)C(=O)CCl
AC50 [6]: 50.5 µM (active) | CC50 (Vero): 17.5 µM (active) | EC50 (Protein RecA): 6.26 µM (active)

CCCN(CCC)c1[nH]cnc2ncnc1-2
AC50 (HEK293): 21.2 µM (active)

Cc1cc([N+](=O)[O-])nn1Cc1ccccc1F
AC50 (Cytochrome P450 1A2): 22.4 µM (inconclusive) | IC50 (Jurkat): > 80 µM (inactive) | AC50 (Cytochrome P450 2C9): inconclusive | IC50 [7]: > 80 µM (inactive)

O=C(OCCOc1cccc(Cl)c1)c1cc(S(=O)(=O)N2CCCCC2)ccc1N1CCOCC1
EC50 [4]: > 30 µM (not active) | AC50 [8]: 48.3 µM (active) | AC50 [9]: 52.3 µM (active) | AC50 (INS1): 4.81 µM (active) | EC50 [5]: 3.05 µM (active) | AC50 [10]: 22.1 µM (active)

O=C1C(c2cc(O)c3ccccc3n2)=C(O)c2ccccc21
IC50 [11]: 53.4 µM (inactive)

CCCN(CCC)S(=O)(=O)c1ccc(C(=O)Nc2nnc(-c3cc(OC)cc(OC)c3)o2)cc1
AC50 [12]: 2.64 µM (active) | AC50 [13]: 3.45 µM (active) | AC50 [14]: 1.33 µM (active) | EC50 (Streptococcus): 0.43 µM (active) | EC50 [4]: 3.92 µM (active) | EC50 [15]: 0.12 µM (active) | EC50 [5]: 0.965 µM (active) | IC50 (H9c2): > 79 µM (inactive) | AC50 (HEK293): 2.51 µM (active)

COc1cc(NCCCn2cnc3c(OCc4ccccc4)ncnc32)cc(OC)c1OC
IC50 [11]: > 80 µM (inactive)

Nc1nc(N)c2cc(S(=O)(=O)c3ccc4ccccc4c3)ccc2n1
EC50 [1]: > 99 µM (inactive) | AC50 [12]: 3.37 µM (active) | EC50 [2]: > 99 µM (inactive) | AC50 [14]: 2.82 µM (active)

COc1ccccc1CN(C)C[C@H]1Oc2c(NC(=O)c3ccncc3)cccc2C(=O)N([C@@H](C)CO)C[C@@H]1C
AC50 [16]: 0.078 µM (active)

CC(C)N1C[C@@H](CN(C)Cc2ccc(Cl)cc2)Oc2c(C(=O)Nc3ccncc3)cccc2C1=O
AC50 [16]: 0.00079 µM (active)

COc1ccc(CCc2cc(OC)c(OC)c(OC)c2)cc1
CC50 (Vero): 1.66 µM (active)
